Measured values published in the NIST ThermoML archive (doi:10.1021/je700260f).

Conditions: 313.15 K, Liquid, Vibrating tube method

FC(C(F)(F)F)C(F)(F)F [1,1,1,2,3,3,3-heptafluoropropane]
Conditions	mass density [kg/m3]
13017 kPa	1415.6
13123 kPa	1416.2
13155 kPa	1416.3
13192 kPa	1416.5
13220 kPa	1416.6
13252 kPa	1417
13275 kPa	1417.1
13311 kPa	1417.3
13338 kPa	1417.4
13374 kPa	1417.6
13406 kPa	1417.6
13443 kPa	1418
13476 kPa	1418.1
13514 kPa	1418.3
13538 kPa	1418.3
13572 kPa	1418.6
13615 kPa	1418.9
13653 kPa	1419.1
13686 kPa	1419.4
13729 kPa	1419.6
13757 kPa	1419.6
13800 kPa	1419.9
13833 kPa	1420.1
13862 kPa	1420.3
13891 kPa	1420.4
13925 kPa	1420.6
13959 kPa	1420.6
13998 kPa	1420.9
14038 kPa	1421.2
14071 kPa	1421.4
14109 kPa	1421.6
14152 kPa	1421.9
14190 kPa	1422
14230 kPa	1422.4
14386 kPa	1422.9
14416 kPa	1423.1
14459 kPa	1423.5
14490 kPa	1423.7
14534 kPa	1423.8
14559 kPa	1423.9
14599 kPa	1424.1
14628 kPa	1424.3
14673 kPa	1424.6
14708 kPa	1424.9
14737 kPa	1424.9
14767 kPa	1425
14796 kPa	1425.3
14836 kPa	1425.4
14865 kPa	1425.6
14904 kPa	1425.8
14933 kPa	1425.9
14966 kPa	1426.1
14996 kPa	1426.1
15036 kPa	1426.5
15063 kPa	1426.5
15093 kPa	1426.7
15124 kPa	1426.9
15155 kPa	1427
15184 kPa	1427.2
15210 kPa	1427.4
15246 kPa	1427.5
15282 kPa	1427.7
15313 kPa	1428.1
15346 kPa	1427.9
15372 kPa	1428.3
15412 kPa	1428.5
15443 kPa	1428.6
15484 kPa	1428.7
15512 kPa	1429
15540 kPa	1429
15570 kPa	1429.3
15597 kPa	1429.5
15629 kPa	1429.6
15661 kPa	1429.7
15703 kPa	1429.9
15744 kPa	1430
15771 kPa	1430.2
15813 kPa	1430.6
15845 kPa	1430.6
15887 kPa	1430.9
15924 kPa	1431.2
15947 kPa	1431.2
15988 kPa	1431.4
16024 kPa	1431.6
16051 kPa	1431.6
16091 kPa	1431.9
16136 kPa	1432.1
16169 kPa	1432.2
16230 kPa	1432.6
16290 kPa	1432.9
16326 kPa	1433
16358 kPa	1433.3
16395 kPa	1433.5
16436 kPa	1433.6
16468 kPa	1433.7
16504 kPa	1434
16582 kPa	1434.4
16615 kPa	1434.6
16652 kPa	1434.6
16709 kPa	1435
16737 kPa	1434.9
16807 kPa	1435.4
16839 kPa	1435.5
16867 kPa	1435.7
16905 kPa	1436.1
16942 kPa	1436.1
16974 kPa	1436.3
17006 kPa	1436.5
17039 kPa	1436.6
17075 kPa	1436.8
17104 kPa	1436.8
17132 kPa	1437.2
17165 kPa	1437.3
17197 kPa	1437.3
17235 kPa	1437.5
17267 kPa	1437.6
17294 kPa	1437.8
17334 kPa	1438
17360 kPa	1438.1
17392 kPa	1438.3
17427 kPa	1438.5
17459 kPa	1438.7
17496 kPa	1438.9
17519 kPa	1439
17551 kPa	1439.2
17575 kPa	1439.3
17616 kPa	1439.4
17652 kPa	1439.6
17684 kPa	1439.7
17711 kPa	1440
17743 kPa	1440
17775 kPa	1440.1
17811 kPa	1440.3
17839 kPa	1440.4
17877 kPa	1440.6
17906 kPa	1440.8
17943 kPa	1440.9
17971 kPa	1441.1
18008 kPa	1441.2
18041 kPa	1441.4
18077 kPa	1441.6
18110 kPa	1441.7
18143 kPa	1442
18176 kPa	1442.1
18204 kPa	1442.2
18242 kPa	1442.3
18277 kPa	1442.6
18309 kPa	1442.7
18337 kPa	1442.8
18375 kPa	1443
18403 kPa	1443.1
18441 kPa	1443.2
18469 kPa	1443.5
18507 kPa	1443.6
18691 kPa	1444.6
18725 kPa	1444.7
18755 kPa	1444.7
18796 kPa	1444.9
18830 kPa	1445
18875 kPa	1445.3
18905 kPa	1445.6
18955 kPa	1445.7
18985 kPa	1445.8
19031 kPa	1445.9
19066 kPa	1446.1
19107 kPa	1446.4
19137 kPa	1446.6
19178 kPa	1446.8
19218 kPa	1446.9
19263 kPa	1447.2
19293 kPa	1447.3
19333 kPa	1447.5
19378 kPa	1447.6
19412 kPa	1447.8
19441 kPa	1448
19476 kPa	1448.1
19522 kPa	1448.4
19553 kPa	1448.5
19589 kPa	1448.7
19625 kPa	1448.9
19669 kPa	1448.9
19710 kPa	1449.1
19750 kPa	1449.4
19781 kPa	1449.5
19822 kPa	1449.6
19858 kPa	1449.8
19893 kPa	1450
19930 kPa	1450.1
19961 kPa	1450.3
19996 kPa	1450.4
20037 kPa	1450.7
20072 kPa	1450.8
20108 kPa	1450.8
20144 kPa	1451.1
20180 kPa	1451.2
20221 kPa	1451.4
20257 kPa	1451.5
20293 kPa	1451.8
20324 kPa	1451.8
20366 kPa	1452
20397 kPa	1452.3
20433 kPa	1452.4
20464 kPa	1452.6
20500 kPa	1452.8
20530 kPa	1452.8
